Laboratory results: patent publication US12421225B2, “Heteroaromatic amide derivative and medicament containing the same” (KAKEN PHARMACEUTICAL CO., LTD., priority 2018, dated 2025)

How the values were obtained:
human Nav1.7 = human Nav1.7 (Homo sapiens (Human), UniProt Q15858); assay: Human Nav1.7 inhibitory activity evaluation (automated patch clamp QPatch16X, HEK293A cells stably expressing human Nav1.7 and human Navβ1); format: cell-based; conditions: human Nav1.7, automated patch clamp
In short: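 QPatch16X whole-cell recordings at room temperature from HEK293A cells stably expressing human Nav1.7 with Navβ1, CsF-based internal solution, pH 7.4 external, 0.1% DMSO. From −100 mV holding, protocol included a 15 s hold at a potential inactivating ~30-40% of channels; IC50 from inward current at the second −10 mV pulse.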

human Nav1.5 = human Nav1.5 (Homo sapiens (Human), UniProt Q14524); assay: Human Nav1.5 inhibitory activity evaluation (automated patch clamp QPatch16X, HEK293 cells stably expressing human Nav1.5); format: cell-based; conditions: human Nav1.5, automated patch clamp
Chain of human Nav1.5 (Q14524 whole entry): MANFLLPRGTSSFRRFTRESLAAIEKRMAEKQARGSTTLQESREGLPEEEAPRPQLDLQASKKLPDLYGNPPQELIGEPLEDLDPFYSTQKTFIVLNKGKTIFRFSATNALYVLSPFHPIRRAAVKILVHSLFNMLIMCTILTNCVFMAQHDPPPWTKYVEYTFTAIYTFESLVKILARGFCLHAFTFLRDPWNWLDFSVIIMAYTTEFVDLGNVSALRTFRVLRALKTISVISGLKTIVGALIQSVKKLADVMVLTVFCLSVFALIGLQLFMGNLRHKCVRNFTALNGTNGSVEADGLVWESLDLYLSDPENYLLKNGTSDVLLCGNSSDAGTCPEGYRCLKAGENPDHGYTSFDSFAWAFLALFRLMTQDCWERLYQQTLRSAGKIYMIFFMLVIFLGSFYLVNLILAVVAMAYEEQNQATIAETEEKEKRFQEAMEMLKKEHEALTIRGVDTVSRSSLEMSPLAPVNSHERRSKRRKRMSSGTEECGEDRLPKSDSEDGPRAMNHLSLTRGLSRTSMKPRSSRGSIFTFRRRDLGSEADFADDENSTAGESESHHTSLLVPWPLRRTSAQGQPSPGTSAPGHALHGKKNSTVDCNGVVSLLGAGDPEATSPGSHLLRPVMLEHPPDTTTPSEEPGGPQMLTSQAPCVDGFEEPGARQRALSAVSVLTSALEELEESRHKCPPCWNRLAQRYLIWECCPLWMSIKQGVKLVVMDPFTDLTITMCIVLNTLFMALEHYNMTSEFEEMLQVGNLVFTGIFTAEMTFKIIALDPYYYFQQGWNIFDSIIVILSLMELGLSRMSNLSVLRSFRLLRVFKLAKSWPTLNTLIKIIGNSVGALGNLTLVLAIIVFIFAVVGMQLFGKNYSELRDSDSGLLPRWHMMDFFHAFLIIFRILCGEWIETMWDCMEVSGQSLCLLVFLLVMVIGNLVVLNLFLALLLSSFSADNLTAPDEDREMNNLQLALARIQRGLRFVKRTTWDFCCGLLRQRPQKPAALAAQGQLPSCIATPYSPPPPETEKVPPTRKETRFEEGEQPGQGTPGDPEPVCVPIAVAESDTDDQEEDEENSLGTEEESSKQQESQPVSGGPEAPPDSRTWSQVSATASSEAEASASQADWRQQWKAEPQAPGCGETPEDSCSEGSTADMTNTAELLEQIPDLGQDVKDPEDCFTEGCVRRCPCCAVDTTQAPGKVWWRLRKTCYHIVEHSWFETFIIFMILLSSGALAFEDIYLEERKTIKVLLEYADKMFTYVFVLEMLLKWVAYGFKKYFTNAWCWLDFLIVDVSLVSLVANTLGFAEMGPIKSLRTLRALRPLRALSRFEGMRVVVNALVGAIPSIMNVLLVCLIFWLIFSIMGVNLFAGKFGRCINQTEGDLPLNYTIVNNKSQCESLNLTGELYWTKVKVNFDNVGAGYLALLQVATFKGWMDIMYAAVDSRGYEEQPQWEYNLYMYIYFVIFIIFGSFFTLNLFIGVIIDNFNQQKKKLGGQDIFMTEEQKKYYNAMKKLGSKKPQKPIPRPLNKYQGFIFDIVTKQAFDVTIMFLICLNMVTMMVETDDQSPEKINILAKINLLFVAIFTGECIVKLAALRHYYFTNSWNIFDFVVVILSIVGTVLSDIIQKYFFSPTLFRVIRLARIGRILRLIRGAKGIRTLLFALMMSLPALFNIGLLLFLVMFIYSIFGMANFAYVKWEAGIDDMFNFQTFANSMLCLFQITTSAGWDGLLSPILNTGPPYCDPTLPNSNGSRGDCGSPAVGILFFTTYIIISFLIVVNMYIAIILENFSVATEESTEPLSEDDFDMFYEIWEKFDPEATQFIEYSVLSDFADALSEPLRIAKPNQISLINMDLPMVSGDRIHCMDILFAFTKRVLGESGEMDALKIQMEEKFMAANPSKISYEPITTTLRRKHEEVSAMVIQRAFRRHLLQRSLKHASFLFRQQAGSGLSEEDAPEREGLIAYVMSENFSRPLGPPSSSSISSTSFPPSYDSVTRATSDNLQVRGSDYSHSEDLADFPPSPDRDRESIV
In short: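 Whole-cell automated patch clamp at room temperature on HEK293 stably expressing human Nav1.5; holding −80 mV, 20 consecutive cardiomyocyte action-potential-like test pulses before and after compound (0.1% DMSO). Inhibition measured on inward current at 20th pulse; IC50 from concentration-response curve.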

Chain of human Nav1.7 (Q15858 whole entry): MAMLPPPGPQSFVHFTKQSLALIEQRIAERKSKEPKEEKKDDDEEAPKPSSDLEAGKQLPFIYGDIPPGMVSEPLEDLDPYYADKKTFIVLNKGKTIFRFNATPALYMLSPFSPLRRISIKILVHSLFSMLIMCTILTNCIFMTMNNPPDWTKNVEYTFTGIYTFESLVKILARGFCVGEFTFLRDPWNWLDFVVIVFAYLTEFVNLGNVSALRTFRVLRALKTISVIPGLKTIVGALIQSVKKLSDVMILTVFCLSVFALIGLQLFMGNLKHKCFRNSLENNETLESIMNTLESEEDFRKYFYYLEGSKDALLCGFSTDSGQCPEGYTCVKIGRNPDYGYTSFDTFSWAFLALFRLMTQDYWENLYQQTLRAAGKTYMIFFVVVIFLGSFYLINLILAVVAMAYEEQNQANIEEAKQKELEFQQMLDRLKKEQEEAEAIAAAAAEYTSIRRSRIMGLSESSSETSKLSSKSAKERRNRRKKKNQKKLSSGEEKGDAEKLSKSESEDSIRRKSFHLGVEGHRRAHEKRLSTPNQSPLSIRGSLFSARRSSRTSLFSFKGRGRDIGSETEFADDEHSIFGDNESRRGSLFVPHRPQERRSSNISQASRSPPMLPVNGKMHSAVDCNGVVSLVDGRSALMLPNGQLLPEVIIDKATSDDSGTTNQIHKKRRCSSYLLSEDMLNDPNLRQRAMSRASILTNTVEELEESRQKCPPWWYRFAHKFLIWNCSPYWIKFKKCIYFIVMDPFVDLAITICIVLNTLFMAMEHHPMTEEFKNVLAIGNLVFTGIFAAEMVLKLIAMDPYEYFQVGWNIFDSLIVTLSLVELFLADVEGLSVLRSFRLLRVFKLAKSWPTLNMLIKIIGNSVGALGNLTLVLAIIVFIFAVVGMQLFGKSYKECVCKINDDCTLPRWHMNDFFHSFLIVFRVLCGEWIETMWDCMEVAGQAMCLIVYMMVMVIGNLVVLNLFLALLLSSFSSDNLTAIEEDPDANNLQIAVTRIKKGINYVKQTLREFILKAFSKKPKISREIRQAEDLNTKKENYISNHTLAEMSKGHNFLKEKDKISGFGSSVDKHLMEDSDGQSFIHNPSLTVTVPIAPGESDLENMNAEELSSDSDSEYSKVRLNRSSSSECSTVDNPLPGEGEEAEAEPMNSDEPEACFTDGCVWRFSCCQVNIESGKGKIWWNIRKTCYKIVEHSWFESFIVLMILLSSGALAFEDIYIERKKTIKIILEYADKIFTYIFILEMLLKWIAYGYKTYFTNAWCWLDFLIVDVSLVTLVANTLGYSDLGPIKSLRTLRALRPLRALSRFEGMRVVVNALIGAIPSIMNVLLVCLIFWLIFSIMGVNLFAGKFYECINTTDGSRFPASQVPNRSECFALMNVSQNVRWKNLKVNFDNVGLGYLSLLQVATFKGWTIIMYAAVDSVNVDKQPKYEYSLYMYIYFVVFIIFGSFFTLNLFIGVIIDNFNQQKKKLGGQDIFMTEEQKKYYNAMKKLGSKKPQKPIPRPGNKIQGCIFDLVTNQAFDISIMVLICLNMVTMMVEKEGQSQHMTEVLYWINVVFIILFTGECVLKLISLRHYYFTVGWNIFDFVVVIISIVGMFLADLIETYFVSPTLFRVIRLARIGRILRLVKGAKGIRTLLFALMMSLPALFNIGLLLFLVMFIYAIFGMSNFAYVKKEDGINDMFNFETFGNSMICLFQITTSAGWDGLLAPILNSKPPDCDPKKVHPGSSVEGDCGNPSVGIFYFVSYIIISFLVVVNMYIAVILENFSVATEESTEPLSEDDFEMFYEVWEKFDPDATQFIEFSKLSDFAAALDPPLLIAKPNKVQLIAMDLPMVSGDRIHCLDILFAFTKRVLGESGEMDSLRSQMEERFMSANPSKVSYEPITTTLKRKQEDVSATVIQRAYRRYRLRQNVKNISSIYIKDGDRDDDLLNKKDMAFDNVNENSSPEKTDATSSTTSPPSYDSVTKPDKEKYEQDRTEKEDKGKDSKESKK
Chain of human Nav1.7 (Q07699 19-218 partner): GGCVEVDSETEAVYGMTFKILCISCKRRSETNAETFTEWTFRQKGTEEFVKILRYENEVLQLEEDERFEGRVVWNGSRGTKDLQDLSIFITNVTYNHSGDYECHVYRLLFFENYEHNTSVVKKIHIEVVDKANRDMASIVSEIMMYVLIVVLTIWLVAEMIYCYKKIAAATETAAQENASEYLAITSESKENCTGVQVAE

Compound | IC50 (human Nav1.7) | IC50 (human Nav1.5)
O=C(N[C@H]1COc2ccccc2C1)c1cc2n(n1)CCC(c1ccccc1)N2 (stereo partly shown) [Example 287] | < 10 µM | ≥ 3000 nM
O=C(NC1COc2cccc(-c3ccccc3)c2C1)c1cn2c(n1)CCC(C(F)(F)F)C2 (stereo not shown) [Example 291] | < 10 µM | ≥ 3000 nM
O=C(NC1COc2cccc(C(F)F)c2C1)c1cn2c(n1)CCC(C(F)(F)F)C2 (stereo not shown) [Example 292] | < 1 µM | 1000 to 3000 nM
N#Cc1cccc2c1CC(NC(=O)c1cn3c(n1)CCC(C(F)(F)F)C3)CO2 (stereo not shown) [Example 294] | < 10 µM | ≥ 3000 nM
CCc1ccc2c(c1)CC(NC(=O)c1cn3c(n1)CCC(C(F)(F)F)C3)CO2 (stereo not shown) [Example 295] | < 1 µM | ≥ 3000 nM
O=C(c1cn2c(n1)CCC(C(F)(F)F)C2)N(Cc1ccccc1)C1COc2ccc(Br)cc2C1 (stereo not shown) [Example 298] | < 1 µM | 1000 to 3000 nM
COc1cccc(-c2c(C(=O)N[C@H]3COc4ccccc4C3)nc3n2CCCC3)n1 [Example 303] | < 1 µM | 1000 to 3000 nM
O=C(N[C@H]1COc2ccc(C(F)(F)F)cc2C1)c1nc2n(c1-c1ccccn1)CCCC2 [Example 305] | < 1 µM | 1000 to 3000 nM
O=C(c1cn2c(n1)CCC(c1cccc(N3CCOCC3)n1)C2)N1CCC(c2ccccc2)C1 (stereo not shown) [Example 307] | < 10 µM | 1000 to 3000 nM
CCNc1cccc(C2CCc3nc(C(=O)N4CCC(c5ccccc5)C4)cn3C2)n1 (stereo not shown) [Example 308] | < 10 µM | 1000 to 3000 nM
C[C@@H]1CN(c2cccc(C3CCc4nc(C(=O)N5CCC(c6ccccc6)C5)cn4C3)n2)C[C@H](C)O1 (stereo partly shown) [Example 311] | < 10 µM | ≥ 3000 nM
O=C(c1cn2c(n1)CCC(c1cccc(OC3COC3)n1)C2)N1CCC(c2ccccc2)C1 (stereo not shown) [Example 313] | < 10 µM | ≥ 3000 nM
COc1ncc(C(F)(F)F)cc1C1CCc2nc(C(=O)N3CCC(c4ccccc4)C3)cn2C1 (stereo not shown) [Example 316] | < 10 µM | 1000 to 3000 nM
COc1ccc(CCC2CCc3nc(C(=O)N4CCC(c5ccccc5)C4)cn3C2)cn1 (stereo not shown) [Example 317] | < 10 µM | ≥ 3000 nM
O=C(c1cn2c(n1)CCC(C1CCC(F)(F)CC1)C2)N1CCC1Cc1ccccc1 (stereo not shown) [Example 318] | < 10 µM | ≥ 3000 nM
O=C(N[C@H]1COc2ccccc2C1)c1cn2c(n1)CCC(OCCOC(F)(F)F)C2 (stereo partly shown) [Example 321] | < 10 µM | ≥ 3000 nM
O=C(NCCc1cccc(C(F)(F)F)c1)c1cn2c(n1)CNC(c1cccc(C(F)(F)F)n1)C2 (stereo not shown) [Example 324] | < 10 µM | ≥ 3000 nM
CN1Cc2nc(C(=O)NCCc3cccc(OCC(F)(F)F)c3)cn2CC1c1ccc(C(F)(F)F)cc1 (stereo not shown) [Example 325] | < 1 µM | ≥ 3000 nM
CN1Cc2nc(C(=O)NCCc3cccc(C(F)(F)F)c3)cn2CC1c1cccnc1C(F)(F)F (stereo not shown) [Example 326] | < 10 µM | ≥ 3000 nM
CN1Cc2nc(C(=O)NCCc3cccc(OCC4CCOCC4)c3)cn2CC1c1ccccc1 (stereo not shown) [Example 327] | < 10 µM | ≥ 3000 nM
CC(C)(C)CCC1Cn2cc(C(=O)N[C@H]3COc4ccccc4C3)nc2CN1 (stereo partly shown) [Example 328] | < 10 µM | 1000 to 3000 nM
CN1Cc2nc(C(=O)NCC(F)(F)c3cccc(C(F)(F)F)c3)cn2CC1c1ccccc1 (stereo not shown) [Example 331] | < 10 µM | 1000 to 3000 nM
CN(CCc1cccc(C(F)(F)F)c1)C(=O)c1cn2c(n1)CN(C)C(c1ccccc1)C2 (stereo not shown) [Example 332] | < 10 µM | ≥ 3000 nM
CN1Cc2nc(C(=O)NCC(F)c3cccc(C(F)(F)F)c3)cn2CC1c1cccc(C(F)(F)F)n1 (stereo not shown) [Example 333] | < 10 µM | ≥ 3000 nM
CN1Cc2nc(C(=O)NC3COc4cccc(C(F)(F)F)c4C3)cn2CC1c1ccccc1 (stereo not shown) [Example 334] | < 10 µM | 1000 to 3000 nM
O=C(c1cn2c(n1)CNC(c1cccc(OC(F)(F)F)c1)C2)N1CC[C@H](Oc2cccc(C(F)F)n2)C1 (stereo partly shown) [Example 336] | < 10 µM | 1000 to 3000 nM
O=C(c1cn2c(n1)CNC(c1cccc(OC(F)(F)F)c1)C2)N1CCOC(c2cccc(C(F)(F)F)c2)C1 (stereo not shown) [Example 337] | < 10 µM | ≥ 3000 nM

Compound | IC50 (human Nav1.7) | IC50 (human Nav1.5)
O=C(N[C@H]1COc2ccccc2C1)c1nc2n(c1-c1ccccc1)CCN(CC(F)(F)F)C2 [Example 338] | < 10 µM | ≥ 3000 nM
O=C(N[C@H]1COc2ccccc2C1)c1cn2c(n1)COC(c1ccccc1)C2 (stereo partly shown) [Example 340] | < 10 µM | ≥ 3000 nM
O=C(N[C@H]1COc2ccc(CC(F)(F)F)cc2C1)c1nc2n(c1-c1ccccn1)CCOC2 [Example 343] | < 1 µM | 1000 to 3000 nM
Cn1ccc(-c2c(C(=O)N[C@H]3COc4ccc(C(F)(F)F)cc4C3)nc3n2CCOC3)n1 [Example 345] | < 1 µM | 1000 to 3000 nM
O=C(N[C@H]1COc2ccccc2C1)c1cc2n(n1)CCC(c1ccccc1)O2 (stereo partly shown) [Example 349] | < 1 µM | 1000 to 3000 nM
O=C(c1cc2n(n1)CCC(c1ccccc1)O2)N1CCC(c2cccc(C(F)(F)F)c2)C1 (stereo not shown) [Example 350] | < 10 µM | ≥ 3000 nM
COc1cccc2c1CC(NC(=O)c1cc3n(n1)CCC(c1ccccc1)O3)CO2 (stereo not shown) [Example 351] | < 1 µM | ≥ 3000 nM
O=C(NC1COc2ccc(F)cc2C1)c1cc2n(n1)CCC(c1ccccc1)O2 (stereo not shown) [Example 352] | < 1 µM | ≥ 3000 nM
O=C(NC1COc2cccc(Br)c2C1)c1cc2n(n1)CCC(c1ccccc1)O2 (stereo not shown) [Example 353] | < 10 µM | ≥ 3000 nM
O=C(NC1COc2cccc(F)c2C1)c1cc2n(n1)CCC(c1ccccc1)O2 (stereo not shown) [Example 356] | < 1 µM | ≥ 3000 nM
O=C(N[C@H]1COc2ccc(-c3cncnc3)cc2C1)c1cc2n(n1)CCC(c1ccccc1F)O2 (stereo partly shown) [Example 357] | < 1 µM | ≥ 3000 nM
O=C(N[C@H]1COc2ccc(Cl)cc2C1)c1cc2n(n1)CCC(c1cccnc1)O2 (stereo partly shown) [Example 358] | < 10 µM | ≥ 3000 nM
N#Cc1ccc2c(c1)C[C@@H](NC(=O)c1cc3n(n1)CCC(c1ccccc1F)O3)CO2 (stereo partly shown) [Example 359] | < 1 µM | ≥ 3000 nM
COCc1ccc2c(c1)C[C@@H](NC(=O)c1cc3n(n1)CCC(c1ccccc1F)O3)CO2 (stereo partly shown) [Example 361] | < 1 µM | ≥ 3000 nM
O=C(N[C@H]1COc2ccc(Cl)cc2C1)c1cc2n(n1)CCC(c1ccnc(C(F)(F)F)c1)O2 (stereo partly shown) [Example 362] | < 10 µM | ≥ 3000 nM
N#Cc1ccc2c(c1)C[C@@H](NC(=O)c1cc3n(n1)CCC(c1ccc(F)cc1)O3)CO2 (stereo partly shown) [Example 364] | < 1 µM | 1000 to 3000 nM
N#Cc1ccc2c(c1)C[C@@H](NC(=O)c1cc3n(n1)CCC(c1c(F)cccc1F)O3)CO2 (stereo partly shown) [Example 366] | < 1 µM | 1000 to 3000 nM
N#Cc1ccc2c(c1)C[C@@H](NC(=O)c1cc3n(n1)CCC(C(F)(F)F)O3)CO2 (stereo partly shown) [Example 373] | < 10 µM | ≥ 3000 nM
N#Cc1ccc2c(c1)C[C@@H](NC(=O)c1cc3n(n1)CCC(C(F)(F)F)O3)CO2 (stereo partly shown) [Example 374] | < 1 µM | ≥ 3000 nM
O=C(N[C@H]1COc2ccc(-c3cccnc3)cc2C1)c1cc2n(n1)CCC(C(F)(F)F)O2 (stereo partly shown) [Example 375] | < 1 µM | ≥ 3000 nM
COc1ccc(-c2ccc3c(c2)C[C@@H](NC(=O)c2cc4n(n2)CCC(C(F)(F)F)O4)CO3)cn1 (stereo partly shown) [Example 378] | < 10 µM | ≥ 3000 nM
O=C(N[C@H]1COc2ccc(-c3ccccn3)cc2C1)c1cc2n(n1)CCC(C(F)(F)F)O2 (stereo partly shown) [Example 382] | < 10 µM | ≥ 3000 nM
CC1(C)CCn2nc(C(=O)N[C@H]3COc4ccc(-c5ccccn5)cc4C3)cc2O1 [Example 383] | < 1 µM | ≥ 3000 nM
N#Cc1ccc2c(c1)C[C@@H](NC(=O)c1cc3n(n1)CCC(C#CC(F)(F)F)O3)CO2 (stereo partly shown) [Example 386] | < 1 µM | ≥ 3000 nM
CCCC1CCn2nc(C(=O)N[C@H]3COc4ccc(Cl)cc4C3)cc2O1 (stereo partly shown) [Example 389] | < 1 µM | 1000 to 3000 nM
O=C(N[C@H]1COc2ccc(COCC3CC3)cc2C1)c1cc2n(n1)CCC(C(F)(F)F)O2 (stereo partly shown) [Example 391] | < 1 µM | ≥ 3000 nM
